Measured values from patent US6930222B2, “In vivo animal model of human leukemia” (The Scripps Research Institute, priority 2000, dated 2005).

Test system: primary T-ALL obtained from patients
Test: in vitro leukemia colony assay (methylcellulose, IL-2 and PMA)
Format: cell-based, human
Conditions: 10 ng/ml
Source text: To characterize the nature of the enhancing activity on leukemia engraftment, colony formation of leukemia clonogenic cells was examined in vitro in the presence of cord blood or cord blood derived mesenchymal stem cell conditioned medium. The in vitro leukemia colony assay is based on the ability of leukemic clonogenic cells to proliferate and form colonies in response to growth factors such as IL-2. These leukemic “progenitor” cells have been implicated in the maintenance and expansion of leukemic blast populations.
On microscopic analysis, there is a wide range of colony sizes in the samples to which conditioned medium was added. The colonies in the cultures were individually picked, pooled for similar sizes of colonies, and the number of leukemia cells counted.
Using this primary leukemia sample, leukemia colony forming assay with the addition of cord blood conditioned medium was performed. […] On day 14, leukemia colonies were individually picked. Approximately 1.4×10^6 cells were recovered, and these cells were pooled for flow cytometric analysis. The vast majority of cells are uniquely CD45^−CD7^+, CD45^−CD34^+, and CD7^+CD34^+. Collectively, the results are consistent with approximately 90% of the harvested cells from in vitro cultures having the surface phenotype CD45^−CD7^+CD34^+, identical to the atypical phenotype of the primary leukemia of this patient. […]

Q: “recombinant IL-15: potent immunoregulatory cytokine, also a T-cell growth factor” was tested. Which “stimulation of colony formation of primary leukemia” value did it give?
A: about 80%
